# Patent US20230219951A1, “PYRIDINE-PYRIMIDINE DERIVATIVE, PREPARATION METHOD THEREFOR AND PHARMACEUTICAL USE THEREOF” (Jiangsu Hengrui Pharmaceuticals Co., Ltd., priority 2020, published 2023)
# Assays:
# [1] = biological target: T1, interaction between the KRAS protein subtype G12D and the SOS1 protein (Homo sapiens, UniProt Q07889); experiment: Inhibition of the interaction between KRAS G12D and SOS1 protein (AlphaLISA/AlphaScreen); type: binding; settings: KRAS G12D + GST-TEV-SOS1(564-1049) + GDP
# T1 construct: GST-TEV-SOS1(564-1049) (Viva Biotech, SOS1-191010); purchased SOS1: Viva Biotech; KRAS: Shanghai Panchao Biotechnology Co., Ltd. SOS1-191010
# T1 sequence (Q07889 564-1049): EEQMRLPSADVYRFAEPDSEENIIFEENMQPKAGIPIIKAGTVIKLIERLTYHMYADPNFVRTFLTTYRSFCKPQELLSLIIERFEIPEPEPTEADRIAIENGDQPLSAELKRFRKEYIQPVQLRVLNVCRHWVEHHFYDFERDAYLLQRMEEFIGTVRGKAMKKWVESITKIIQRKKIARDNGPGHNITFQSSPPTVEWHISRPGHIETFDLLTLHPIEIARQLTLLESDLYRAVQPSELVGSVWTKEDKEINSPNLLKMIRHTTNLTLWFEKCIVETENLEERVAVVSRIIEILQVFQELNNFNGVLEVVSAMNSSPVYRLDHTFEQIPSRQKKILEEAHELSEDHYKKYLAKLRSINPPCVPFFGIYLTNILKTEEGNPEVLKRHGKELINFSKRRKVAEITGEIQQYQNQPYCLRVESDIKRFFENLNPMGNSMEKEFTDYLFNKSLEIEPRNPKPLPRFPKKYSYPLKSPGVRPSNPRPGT
# Procedure: (§1) Test Example 1: Inhibitory Ability of Compounds of the Present Disclosure to the Interaction Between the KRAS Protein Subtype G12D or G12V and the SOS1 Protein. The inhibitory ability of the compounds of the present disclosure to the interaction between the KRAS protein subtype G12D or G12V and the SOS1 protein was determined by the following method. The experimental method was briefly described as follows:
# (§2) 1. The experimental buffer was prepared prior to the start of the experiment: 1×PBS+0.1% BSA+0.05% tween 20.
# (§3) 2. KRAS G12D and KRAS-G12V proteins were labeled with biotin using the biotin labeling kit.
# (§4) 1. Firstly, the biotin-labeled KRAS G12D or KRAS G12V protein was mixed and incubated with the SOS1 protein and GDP for later use.
# (§5) 2. AlphaLISA glutathione acceptor beads and AlphaScreen streptavidin donor beads were mixed at a ratio of 1:1 to make the concentration of 40 μg/mL for later use.
# (§6) 3. The compound was formulated with the experimental buffer to obtain 10 concentration points by 5-fold gradient dilution from an initial concentration of 40 μM.
# (§7) 4. In the 384-well microplate, 10 μL of a mixture of KRAS G12D or KRAS G12V protein and SOS1 and GDP and 5 μL of the diluted compound were added to each well and incubated at room temperature for 30 min away from the light.
# (§8) 5. Then, 5 μL of a mixture of AlphaLISA glutathione acceptor beads and AlphaScreen streptavidin donor beads was added to each well and incubated at room temperature for 60 min away from the light.
# (§9) 6. The fluorescence values were read on a multi-mode microplate reader.
# (§10) 7. IC50 values of the compounds were calculated using Graphpad Prism.
# [2] = biological target: T2, interaction between the KRAS protein subtype G12V and the SOS1 protein (Homo sapiens, UniProt Q07889); experiment: Inhibition of the interaction between KRAS G12V and SOS1 protein (AlphaLISA/AlphaScreen); type: binding; settings: KRAS G12V + GST-TEV-SOS1(564-1049) + GDP
# T2 construct: GST-TEV-SOS1(564-1049) (Viva Biotech, SOS1-191010); purchased SOS1: Viva Biotech; KRAS: Shanghai Panchao Biotechnology Co., Ltd. SOS1-191010
# T2 sequence (Q07889 564-1049): T1 sequence (Q07889 564-1049)
# Procedure: as §1, §2, §3, §4, §5, §6, §7, §8, §9, §10
# [3] = test system: ERK phosphorylation of H358 cells; experiment: Inhibition of ERK phosphorylation of H358 cells (HTRF pERK/total ERK); type: cell-based; settings: Homo sapiens, NCI-H358, 1 h incubation, pERK/total ERK ratio
# Procedure: This experiment is intended to evaluate the inhibition effect of the compounds of the present disclosure on the KRAS target (containing the G12C mutation) according to IC50 by determining the inhibition effect of the compounds on ERK phosphorylation of the cells.
# H358 cells (ATCC, CRL-5807) were cultured in RPMI1640 (Hyclone, SH30809.01) complete medium containing 10% fetal bovine serum. On the first day of the experiment, the H358 cells were seeded into a 96-well plate at a density of 25,000 cells/well with a complete medium to form 190 μL of cell suspension per well. The plate was incubated overnight in a cell incubator at 37° C. with 5% CO2. The next day, 10 μL of test compound diluted in a gradient prepared with the complete medium was added to each well. The final concentrations of the compound were 9 concentration points obtained by 5-fold gradient dilution from 10 μM. A blank control containing 0.1% DMSO was set. The plate was incubated in a cell incubator at 37° C. with 5% CO2 for 1 h. 1 h later, the 96-well cell culture plate was taken out, the medium was removed by pipetting, 200 μL PBS (Shanghai BasalMedia Technologies Co., Ltd., B320) was added to each well, and the cells were washed once. PBS was removed by pipetting, 50 μL of lysis buffer (Cisbio, 64KL1FDF) containing a blocking reagent (Cisbio, 64KB1AAC) was added to each well, and the plate was shaken on a shaker at room temperature for 40 min for lysis. After lysis, the lysate was pipetted and mixed well, 16 μL of lysate was transferred from each well to each of two HTRF 96-well assay plates (Cisbio, 66PL96100), and then 4 μL of premixed phospho-ERK1/2 antibody solution (Cisbio, 64AERPEG) or 4 μL of premixed total-ERK1/2 antibody solution (Cisbio, 64NRKPEG) was added to each of the two plates. The microplate was sealed with a sealing membrane, centrifuged for 1 min in a microplate centrifuge, and incubated overnight at room temperature away from the light. On the third day, the fluorescence values at an excitation wavelength of 337 nm and at emission wavelengths of 665 nm and 620 nm were read using a PHERAstar multi-mode microplate reader (BMG Labtech, S/N 471-0361).
# IC50 values for inhibitory activity of the compounds were calculated using Graphpad Prism software based on compound concentrations and pERK/total ERK ratio.
# [4] = test system: H358 cells; experiment: Inhibition of proliferation of H358 cells (CellTiter-Glo 3D); type: cell-based; settings: Homo sapiens, NCI-H358, low adsorption plate, 120 h
# Procedure: This example is intended to evaluate the inhibition effect of the compounds of the present disclosure on the KRAS target (containing the G12C mutation) by testing the inhibition effect of the compounds of the present disclosure on the proliferation of H358 cells.
# H358 cells (ATCC, CRL-5807) were cultured in a complete medium, namely RPMI1640 medium (Hyclone, SH30809.01) containing 10% fetal bovine serum (Corning, 35-076-CV). On the first day of the experiment, the H358 cells were seeded into a 96-well low adsorption plate (Coming, CLS7007-24EA) at a density of 1500 cells/well with a complete medium to form 90 μL of cell suspension per well. The plate was centrifuged at 2000 rpm for 5 min at room temperature and then incubated overnight in a cell incubator at 37° C. with 5% CO2. The next day, 10 μL of test compound diluted in a gradient prepared with the complete medium was added to each well. The final concentrations of the compound were 9 concentration points obtained by 5-fold gradient dilution from 10 μM. A blank control containing 0.1% DMSO was set. The plate was incubated in a cell incubator at 37° C. with 5% CO2 for 120 h. On the seventh day, the 96-well cell culture plate was taken out and 50 μL of CellTiter-Glo® 3D reagent (Promega, G9682) was added into each well. The plate was shaken at room temperature for 25 min, pipetted and mixed well, from which 50 μL of the mixture was transferred into a white impermeable 96-well plate (PE, 6005290). The luminescence signal values were read using a multi-mode microplate reader (PerkinElmer, VICTOR 3).
# IC50 values for the inhibitory activity of the compounds were calculated using Graphpad Prism software.
SMILES,IC50 [1] [nM],IC50 [2] [nM],IC50 [4] [nM],IC50 [3] [nM]
"Cc1nc(N[C@H](C)c2cccc(C(F)F)c2F)c2cc(C3(O)CCN(C(=O)CF)CC3)c(=O)[nH]c2n1 (racemic) [Example 22, rac-(R)-4-((1-(3-(difluoromethyl)-2-fluorophenyl)ethyl)amino)-6-(1-(2-fluoroacetyl)-4-hydroxypiperidin-4-yl)-2-methylpyrido[2,3-d]pyrimidin-7(8H)-one]",14,27,,
"Cc1nc(N[C@H](C)c2cc(N)cc(C(F)(F)F)c2)c2cc(C3=CCOCC3)c(=O)[nH]c2n1 [Example 3, (R)-4-((1-(3-amino-5-(trifluoromethyl)phenyl)ethyl)amino)-6-(3,6-dihydro-2H-pyran-4-yl)-2-methylpyrido[2,3-d]pyrimidin-7(8H)-one]",,,,55
"Cc1nc(N[C@H](C)c2cccc(C(F)F)c2F)c2cc(C3=CCOCC3)c(=O)[nH]c2n1 [Example 5, (R)-4-((1-(3-(difluoromethyl)-2-fluorophenyl)ethyl)amino)-6-(3,6-dihydro-2H-pyran-4-yl)-2-methylpyrido[2,3-d]pyrimidin-7(8H)-one]",42,79,461,
"Cc1nc(N[C@H](C)c2cccc(C(F)F)c2F)c2cc(C3CCOCC3)c(=O)[nH]c2n1 [Example 6, (R)-4-((1-(3-(difluoromethyl)-2-fluorophenyl)ethyl)amino)-2-methyl-6-(tetrahydro-2H-pyran-4-yl)pyrido[2,3-d]pyrimidin-7(8H)-one]",30,56,345,
"Cc1nc(N[C@H](C)c2cccc(C(F)(F)CO)c2F)c2cc(OC3CCOC3)c(=O)[nH]c2n1 (stereo partly drawn) [Example 9, 4-(((R)-1-(3-(1,1-difluoro-2-hydroxyethyl)-2-fluorophenyl)ethyl)amino)-2-methyl-6-(((R)-tetrahydrofuran-3-yl)oxy)pyrido[2,3-d]pyrimidin-7(8B)-one]",8,41,106,
"Cc1nc(N[C@H](C)c2cccc(C(F)F)c2F)c2cc(O[C@H]3CCOC3)c(=O)[nH]c2n1 [Example 10, 4-(((R)-1-(3-(difluoromethyl)-2-fluorophenyl)ethyl)amino)-2-methyl-6-(((S)-tetrahydrofuran-3-yl)oxy)pyrido[2,3-d]pyrimidin-7(8H)-one]",34,80,,
"Cc1nc(N[C@H](C)c2cccc(C(F)F)c2F)c2cc(C3(O)CCOCC3)c(=O)[nH]c2n1 [Example 19, (R)-4-((1-(3-(difluoromethyl)-2-fluorophenyl)ethyl)amino)-6-(4-hydroxytetrahydro-2H-pyran-4-yl)-2-methylpyrido[2,3-d]pyrimidin-7(8H)-one]",47,154,,
"CC(=O)N1CC[C@H](Oc2cc3c(N[C@H](C)c4cccc(C(F)F)c4F)nc(C)nc3[nH]c2=O)C1 [Example 24, 6-(((S)-1-acetylpyrrolidin-3-yl)oxy)-4-(((R)-1-(3-(difluoromethyl)-2-fluorophenyl)ethyl)amino)-2-methylpyrido[2,3-d]pyrimidin-7(8H)-one]",49,133,,
"CNC(=O)C1CCC(O)(c2cc3c(N[C@H](C)c4cccc(C(F)F)c4F)nc(C)nc3[nH]c2=O)CC1 (stereo partly drawn) [Example 29, (R)-4-(4-((1-(3-(difluoromethyl)-2-fluorophenyl)ethyl)amino)-2-methyl-7-oxo-7,8-dihydropyrido[2,3-d]pyrimidin-6-yl)-4-hydroxy-N-methylcyclohexane-1-carboxamide]",91,101,545,

# The remaining molecules from weak to strong by IC50 [1], led by results:
IC50 [1] [nM],IC50 [2] [nM],IC50 [4] [nM],SMILES,IC50 [3] [nM]
44,65,346,"CC(=O)N1CC(Oc2cc3c(N[C@H](C)c4cccc(C(F)F)c4F)nc(C)nc3[nH]c2=O)C1 (racemic) [Example 26, rac-(R)-6-((1-acetylazetidin-3-yl)oxy)-4-((1-(3-(difluoromethyl)-2-fluorophenyl)ethyl)amino)-2-methylpyrido[2,3-d]pyrimidin-7(8H)-one]",
31,35,120,"Cc1nc(N[C@H](C)c2cccc3c2OCC3(F)F)c2cc([C@]3(O)CC[C@@H](O)CC3)c(=O)[nH]c2n1 (racemic) [Example 25-p1, rac-4-(((R)-1-(3,3-difluoro-2,3-dihydrobenzofuran-7-yl)ethyl)amino)-6-((1s,4S)-1,4-dihydroxycyclohexyl)-2-methylpyrido[2,3-d]pyrimidin-7(8H)-one]",101
21.5,79,137,"Cc1nc(N[C@H](C)c2cccc(C(F)F)c2F)c2cc(C3=CCC(C(=O)N(C)C)CC3)c(=O)[nH]c2n1 (stereo partly drawn) [Example 13, 4-(4-(((R)-1-(3-(difluoromethyl)-2-fluorophenyl)ethyl)amino)-2-methyl-7-oxo-7,8-dihydropyrido[2,3-d]pyrimidin-6-yl)-N,N-dimethylcyclohex-3-ene-1-carboxamide]",
10,89,,"Cc1nc(N[C@H](C)c2cccc(C(F)F)c2F)c2cc(OC3CCS(=O)(=O)CC3)c(=O)[nH]c2n1 [Example 23, (R)-4-((1-(3-(difluoromethyl)-2-fluorophenyl)ethyl)amino)-6-((1,1-dioxidotetrahydro-2H-thiopyran-4-yl)oxy)-2-methylpyrido[2,3-d]pyrimidin-7(8H)-one]",
